The results in this text go back to publication PMC11788587, “Validating Low‐Dose Iohexol as a Marker for Glomerular Filtration Rate by In Vitro and In Vivo Studies” (Clinical and Translational Science, 2025).

The target in one series is T1, hOCT1 (Homo sapiens, UniProt O15245).
T1 construct: expressed in transfected cells; host or cells: HEK-293 (293) cells, pEBTetD plasmid, doxycycline-induced
T1 sequence (O15245 1-554): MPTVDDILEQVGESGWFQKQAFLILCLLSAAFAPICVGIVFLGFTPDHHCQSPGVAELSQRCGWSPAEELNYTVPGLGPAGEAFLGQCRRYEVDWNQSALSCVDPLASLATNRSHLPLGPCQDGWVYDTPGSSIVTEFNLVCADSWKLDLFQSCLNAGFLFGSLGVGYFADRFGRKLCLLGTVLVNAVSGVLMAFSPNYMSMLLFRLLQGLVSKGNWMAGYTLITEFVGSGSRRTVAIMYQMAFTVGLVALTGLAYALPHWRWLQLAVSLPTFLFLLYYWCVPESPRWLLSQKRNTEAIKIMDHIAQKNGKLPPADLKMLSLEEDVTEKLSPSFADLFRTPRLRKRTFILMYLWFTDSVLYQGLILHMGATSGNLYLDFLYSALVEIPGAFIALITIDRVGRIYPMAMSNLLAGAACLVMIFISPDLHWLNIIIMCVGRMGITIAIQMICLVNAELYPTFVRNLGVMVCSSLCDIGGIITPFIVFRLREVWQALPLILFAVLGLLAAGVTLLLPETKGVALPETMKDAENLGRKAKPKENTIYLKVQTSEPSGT
Description: Inhibition of hOCT1-mediated metformin uptake, stably transfected 293 cells. Format: cell-based. The note with it: substrate 50 µM metformin, median (95% CI). The source says:
(§1) We characterized the inhibitory potential of iohexol on major drug transporters recommended by regulatory agencies, which were previously assessed in a clinical transporter phenotyping cocktail study. These transporters include hOAT1, hOAT3, hOCT1, hOCT2, hMATE1, hMATE2K, human organic anion transporter polypeptides (hOATP)1B1, hOATP1B3, and human multidrug resistance protein (hMDR)1. Additionally, we investigated whether iohexol is a substrate for any of the renal transporters among these, including hOAT1/3, hOCT1/2, and hMATE1/2K. Cell‐based uptake assays were used to assess the activities of hOAT1/3, hOCT1/2, hMATE1/2K, and hOATP1B1/1B3. Inside‐out membrane vesicle uptake assays were used to evaluate the activity of hMDR1.
To determine the maximal inhibitory potential of iohexol, intracellular accumulation of a standard substrate was measured with and without the clinically relevant highest concentrations of iohexol. Control inhibitors were tested in each experiment.
In all subsequent in vitro studies, control experiments were conducted to validate the results. These included positive controls for substrates and inhibitors, as well as cells either without transporter expression or transfected with an empty vector, and control vesicles. Each condition, including cells or vesicles with the transporter and their respective controls, was analyzed in at least three replicates. For detailed information on materials, methods, and data analysis techniques used, refer to the Supporting Information. […]
(§2) R version 4.2.1 (R Foundation for Statistical Computing, Vienna, Austria) was used for statistical evaluations and data visualization. The data analysis approach for the in vitro study was detailed by Hsin CH et al..^1 In brief, for transport assays, the initial uptake rate was calculated by normalizing the substrate concentration to both the protein concentration and the incubation time for each dish or well. The transporter-mediated uptake rate (net uptake) was determined by performing an element-wise subtraction of uptake rates from different conditions. […]

Another series has as its target T2, hOCT2 (Homo sapiens, UniProt O15244).
T2 construct: expressed in transfected cells; host or cells: HEK-293 (293) cells, pEBTetD plasmid, doxycycline-induced
T2 sequence (O15244 1-555): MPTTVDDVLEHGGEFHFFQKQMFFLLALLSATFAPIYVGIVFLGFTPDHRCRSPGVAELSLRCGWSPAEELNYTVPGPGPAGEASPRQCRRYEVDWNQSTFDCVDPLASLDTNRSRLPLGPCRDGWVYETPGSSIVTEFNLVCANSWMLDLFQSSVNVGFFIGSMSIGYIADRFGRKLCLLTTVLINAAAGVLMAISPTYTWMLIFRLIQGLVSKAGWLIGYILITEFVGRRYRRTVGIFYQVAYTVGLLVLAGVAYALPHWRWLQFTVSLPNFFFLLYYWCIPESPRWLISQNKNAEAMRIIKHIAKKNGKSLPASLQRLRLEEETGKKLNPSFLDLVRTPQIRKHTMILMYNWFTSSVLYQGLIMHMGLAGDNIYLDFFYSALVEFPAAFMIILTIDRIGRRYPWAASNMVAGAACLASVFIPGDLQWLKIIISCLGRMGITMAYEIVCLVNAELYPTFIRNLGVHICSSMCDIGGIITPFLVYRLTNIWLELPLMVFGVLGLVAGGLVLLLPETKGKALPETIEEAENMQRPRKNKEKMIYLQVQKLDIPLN
The series can be described thus: Substrate assessment: iohexol uptake in 293 cells expressing hOCT2 vs control. The settings on record: 10 μM iohexol, median (95% CI). Format: in vitro ADME.
Text: as §1
For substrate assessments, iohexol was incubated with stably transfected HEK‐293 cells expressing one of the following transporters: hOAT1, hOAT3, hOCT1, hOCT2, hMATE1, or hMATE2K, as well as with control cells lacking transporter expression. Stably transfected cell lines containing pEBTetD plasmids with wild‐type human transporter cDNAs were generated as previously described. Transporter expression was induced by adding 1 μg/mL doxycycline to the growth medium for at least 20 h. Iohexol would be considered a substrate for these transporters if: (1) the ratio of iohexol uptake in cells expressing the transporter to that in control cells was ≥ 2, and (2) a known inhibitor of the transporter reduced iohexol uptake to ≤ 50% at concentrations ≥ 10 times its inhibition constant or half‐maximal inhibitory concentration.
Uptake assays were performed using stably transfected 293 cells, with or without the expression of one of the following transporters: hOAT1, hOAT3, hOCT1, hOCT2, hMATE1, or hMATE2K, as previously described.^1
For the substrate assessment, cells were incubated with 10 µM iohexol for 10 minutes and 30 minutes for each transporter. Inhibition assays were performed using specific standard substrates for each transporter: 10 µM para-aminohippuric acid (PAH) for hOAT1, 3 µM estrone-3-sulfate (E3S) for hOAT3, 50 µM metformin for hOCT1, 5 µM metformin for hOCT2, and 3 µM 1-methyl-4-phenylpyridinium (MPP+) for hMATE1 and hMATE2K. […]
as §2

`CC(=O)N(CC(O)CO)c1c(I)c(C(=O)NCC(O)CO)c(I)c(C(=O)NCC(O)CO)c1I` (stereo not shown) [iohexol]: on hOCT1 (20 mM iohexol), the “Inhibitory effect (% reduction of specific activity)” value was “no notable inhibitory effects”. For the same compound, the inhibition at 1000 µM on hOCT1 (HEK293, 1 mM iohexol, read-out: Inhibitory effect (% reduction of specific activity)) is -9.8%. The inhibition at 20000 µM at hOCT1 (HEK293, 20 mM iohexol, read-out: Inhibitory effect (% reduction of specific activity)) is -22%. At hOCT2 (10 minutes), the “Differences in intracellular accumulation (expression on minus off)” value is on record as 1.3 (0.007 to 2.6) pmol/mg protein and the “Uptake ratio (transporter-expressing vs non-expressing cells)” value is 1.1 (1 to 1.2). Also, at hOCT2 (30 minutes), the “Differences in intracellular accumulation (expression on minus off)” value is 1.5 (-1.4 to 2.9) pmol/mg protein and the “Uptake ratio (transporter-expressing vs non-expressing cells)” value is 1.1 (0.9 to 1.3).
